Source: ChEMBL document CHEMBL4359931, “Synthesis, biological evaluation and molecular docking studies of new amides of 4-bromothiocolchicine as anticancer agents” (Bioorg Med Chem, 2019)
The source made the active and inactive calls. The calls are words filed in the database; no cut-off is given here.

Key:
[1] = Cell cycle arrest in human ALL5 cells assessed as accumulation in subG1 phase at 5 times of antiproliferative IC50 incubated for 48 hrs by propidium iodide based flow cytometry (reference value: 11 %); assay type: functional
MCF7 [2] = assay: Cell cycle arrest in human MCF7 cells assessed as accumulation in S phase at 5 times of antiproliferative IC50 incubated for 48 hrs by propidium iodide based flow cytometry (reference value: 34 %); assay type: functional
MCF7 [3] = assay: Cell cycle arrest in human MCF7 cells assessed as accumulation in subG1 phase at 5 times of antiproliferative IC50 incubated for 72 hrs by propidium iodide based flow cytometry (reference value: 3.59 %); assay type: functional
MCF7 [4] = assay: Cell cycle arrest in human MCF7 cells assessed as accumulation in subG1 phase at 5 times of antiproliferative IC50 incubated for 48 hrs by propidium iodide based flow cytometry (reference value: 9.19 %); assay type: functional
MCF7 [5] = assay: Cell cycle arrest in human MCF7 cells assessed as accumulation in S phase at 5 times of antiproliferative IC50 incubated for 72 hrs by propidium iodide based flow cytometry (reference value: 19.8 %); assay type: functional
MCF7 [6] = assay: Cell cycle arrest in human MCF7 cells assessed as accumulation in G1 phase at 5 times of antiproliferative IC50 incubated for 72 hrs by propidium iodide based flow cytometry (reference value: 58 %); assay type: functional
Homo sapiens [7] = species on record: Homo sapiens; assay: Induction of apoptosis in human ALL5 cells assessed as reduction in 116 kDa PARP expression at 0.2 uM incubated for 24 and 48 hrs by immunoblot analysis; assay type: functional, cell-based
MCF7 [8] = assay: Cell cycle arrest in human MCF7 cells assessed as accumulation in G2 phase at 5 times of antiproliferative IC50 incubated for 24 hrs by propidium iodide based flow cytometry (reference value: 22.4 %); assay type: functional
MCF7 [9] = assay: Cell cycle arrest in human MCF7 cells assessed as accumulation in subG1 phase at 5 times of antiproliferative IC50 incubated for 24 hrs by propidium iodide based flow cytometry (reference value: 7.79 %); assay type: functional
[10] = Antiproliferative activity against human ALL5 cells assessed as reduction in cell viability incubated for 120 hrs by MTT assay; assay type: functional, cell-based; conditions: ALL5, 120 h
[11] = Cell cycle arrest in human ALL5 cells assessed as accumulation in subG1 phase at 5 times of antiproliferative IC50 incubated for 24 hrs by propidium iodide based flow cytometry (reference value: 10.5 %); assay type: functional
A549 = assay: Antiproliferative activity against human A549 cells assessed as reduction in cell viability incubated for 120 hrs by MTT assay; assay type: functional, cell-based; conditions: A549, 120 h
[12] = Cell cycle arrest in human ALL5 cells assessed as accumulation in G2 phase at 5 times of antiproliferative IC50 incubated for 48 hrs by propidium iodide based flow cytometry (reference value: 11.2 %); assay type: functional
[13] = Cell cycle arrest in human ALL5 cells assessed as accumulation in S phase at 5 times of antiproliferative IC50 incubated for 72 hrs by propidium iodide based flow cytometry (reference value: 13.5 %); assay type: functional
MCF7 [14] = assay: Cell cycle arrest in human MCF7 cells assessed as accumulation in G2 phase at 5 times of antiproliferative IC50 incubated for 48 hrs by propidium iodide based flow cytometry (reference value: 16 %); assay type: functional
[15] = Cell cycle arrest in human ALL5 cells assessed as accumulation in G1 phase at 5 times of antiproliferative IC50 incubated for 48 hrs by propidium iodide based flow cytometry (reference value: 67.4 %); assay type: functional
[16] = Cell cycle arrest in human ALL5 cells assessed as accumulation in G2 phase at 5 times of antiproliferative IC50 incubated for 72 hrs by propidium iodide based flow cytometry (reference value: 11.3 %); assay type: functional
[17] = Cell cycle arrest in human ALL5 cells assessed as accumulation in G2 phase at 5 times of antiproliferative IC50 incubated for 24 hrs by propidium iodide based flow cytometry (reference value: 10.6 %); assay type: functional
[18] = Cell cycle arrest in human ALL5 cells assessed as accumulation in G1 phase at 5 times of antiproliferative IC50 incubated for 24 hrs by propidium iodide based flow cytometry (reference value: 68.1 %); assay type: functional
[19] = Cell cycle arrest in human ALL5 cells assessed as accumulation in G1 phase at 5 times of antiproliferative IC50 incubated for 72 hrs by propidium iodide based flow cytometry (reference value: 59.7 %); assay type: functional
MCF7 [20] = assay: Cell cycle arrest in human MCF7 cells assessed as accumulation in G1 phase at 5 times of antiproliferative IC50 incubated for 24 hrs by propidium iodide based flow cytometry (reference value: 49.9 %); assay type: functional
Homo sapiens [21] = species on record: Homo sapiens; assay: Induction of apoptosis in human ALL5 cells assessed as increase in 85 kDa PARP expression at 0.2 uM incubated for 24 and 48 hrs by immunoblot analysis; assay type: functional, cell-based
[22] = Cell cycle arrest in human ALL5 cells assessed as accumulation in S phase at 5 times of antiproliferative IC50 incubated for 48 hrs by propidium iodide based flow cytometry (reference value: 10.3 %); assay type: functional
MCF7 [23] = assay: Cell cycle arrest in human MCF7 cells assessed as accumulation in S phase at 5 times of antiproliferative IC50 incubated for 24 hrs by propidium iodide based flow cytometry (reference value: 19.9 %); assay type: functional
[24] = Cell cycle arrest in human ALL5 cells assessed as accumulation in S phase at 5 times of antiproliferative IC50 incubated for 24 hrs by propidium iodide based flow cytometry (reference value: […]); assay type: functional
[25] = Cell cycle arrest in human ALL5 cells assessed as accumulation in subG1 phase at 5 times of antiproliferative IC50 incubated for 72 hrs by propidium iodide based flow cytometry (reference value: 15.5 %); assay type: functional
BALB/3T3 = assay: Antiproliferative activity against mouse BALB/3T3 cells assessed as reduction in cell viability incubated for 120 hrs by MTT assay; assay type: cell-based; conditions: BALB/3T3, 120 h
MCF7 [26] = assay: Cell cycle arrest in human MCF7 cells assessed as accumulation in G2 phase at 5 times of antiproliferative IC50 incubated for 72 hrs by propidium iodide based flow cytometry (reference value: 18.6 %); assay type: functional
MCF7 [27] = assay: Cell cycle arrest in human MCF7 cells assessed as accumulation in G1 phase at 5 times of antiproliferative IC50 incubated for 48 hrs by propidium iodide based flow cytometry (reference value: 40.8 %); assay type: functional

Work on `COc1cccc2c1C(=O)c1c(O)c3c(c(O)c1C2=O)C[C@@](O)(C(=O)CO)C[C@@H]3O[C@H]1C[C@H](N)[C@H](O)[C@H](C)O1` [DOXORUBICIN] yielded an Activity [1] of 21%, an Activity (MCF7 [2]) of 18.3% and an Activity (MCF7 [3]) of 18.3%. The Activity (MCF7 [4]) was 6.08%, the Activity (MCF7 [5]) was 14.1% and the Activity (MCF7 [6]) was 35.1%. For the same compound, the Activity (Homo sapiens [7]) was “Active”, the Activity (MCF7 [8]) was 30.5% and the Activity (MCF7 [9]) was 5.28%. For the same compound, the IC50 [10] was 39.1 nM, the Activity [11] was 1.55% and the IC50 (A549) was 258 nM. The Activity [12] was 5.52%, the Activity [13] was 16.9% and the Activity (MCF7 [14]) was 32.4%. It also gave an Activity [15] of 67.6%, an Activity [16] of 9.99% and an Activity [17] of 22%. It also gave an Activity [18] of 66.3%, an Activity [19] of 36.5% and an Activity (MCF7 [20]) of 47.3%. The Activity (Homo sapiens [21]) was “Active”, the Activity [22] was 2.77% and the Activity (MCF7 [23]) was 16.9%. It also gave an Activity [24] of 7.16%, an Activity [25] of 36.6% and an IC50 (BALB/3T3) of 166 nM. The Activity (MCF7 [26]) was 32.5% and the Activity (MCF7 [27]) was 43.3%.
